Patent publication US20120065126A1, “Pharmaceutical Compositions Containing Antifungal Peptides” (BASF SE, priority 2009, published 2012)

Key:
[1] = test system: Malassezia furfur strain DSM 6170; test: Long-term stability of P18 solution, growth test (CFU); type: cell-based
Procedure: (§1) The studies described hereinafter were conducted on the Malassezia furfur strain DSM 6170.
Since storage may be necessary over a prolonged period, a 1 mM P18 peptide solution (P18 sequence H-KWKLFKKIPKFLHLAKKF-NH2) was subsequently stored at 37° C. over 12 weeks, and the antifungal activity of the stored solution on Malassezia furfur was compared with the activity of a freshly made up 1 mM P18 peptide solution. This was done using a growth test, which was conducted as follows:
Growth medium: M472 Pityrosporum medium according to DSMZ 40 g/1 malt extract 20 g/l ox bile
(§2) The growth test was effected as follows: a shake culture containing M472 Pityrosporum medium was inoculated with M. furfur and incubated with shaking at 30° C. and 200 rpm overnight.
A 96-well microtiter plate was filled with 100 μl per well of M472 Pityrosporum medium and inoculated with M. furfur suspension from the overnight culture. The M. furfur suspension was adjusted at the start of the experiment to an optical density, measured at 600 nm, of 0.02. The concentrates of the inhibitor solutions were 1 mM in water.
The following growth was compared: • M. furfur suspension without addition of an inhibitor • M. furfur suspension and addition of an aqueous fresh P18 solution with a final concentration of 50 μM • M. furfur suspension and addition of an aqueous fresh P18 solution with a final concentration of 25 μM • M. furfur suspension and addition of a P18 solution which had been stored at 37° C. for 12 weeks with a final concentration of 50 μM • M. furfur suspension and addition of a P18 solution which had been stored at 37° C. for 12 weeks with a final concentration of 25 μM
The microtiter plate was incubated with shaking at 30° C.
The growth was observed by measuring the optical density over 24 hours. Subsequently, the colony forming units (CFU) were determined by streaking 1 μl and 5 μl of each of the suspensions and, after incubation over 6 days, counting the colonies. The CFU was determined in order to rule out any influence of the biphasic medium, and also the growth form of M. furfur, on the optical density. The experiments were conducted at least in triple determinations.

[2] = test system: M. furfur; test: Effect of P18 variants (CFU); type: cell-based, Malassezia furfur; settings: 50 μM peptide, with DMSO; 24 h
Procedure: as §1
The inhibitory effect of the following P18 variants on M. furfur was studied:
as §2
A 96-well microtiter plate was filled with 100 μl per well of M472 Pityrosporum medium and inoculated with M. furfur suspension from the overnight culture. The M. furfur suspension was adjusted at the start of the experiment to an optical density, measured at 600 nm, of 0.1.
The peptide variants were dissolved with a final concentration of 1 mM in dimethyl sulfoxide (DMSO). It is also possible to dispense with DMSO and to use a purely aqueous peptide solution. 5 μl of this solution were added to 100 μl of M. furfur suspension (final concentration of the P18 peptide 50 μM). In a control mixture, the same amount of DMSO without P18 peptide was added.
The microtiter plate was incubated with shaking at 30°.
After 24 h, the colony forming units (CFU) were determined by streaking 10 μl of each of the suspensions and, after incubation over the course of 6 days, counting the colonies. Two independent experiments each with three identical mixtures were conducted, and the number of colony forming units was averaged.

[3] = test system: Malassezia furfur (DSM 6170); type: cell-based; settings: DSM 6170, 72 h
Procedure: Minimum inhibitory concentration of peptide P18 (P18 sequence H-KWKLFKKIPKFLHLAKKF-NH2 (Bachem AG, Switzerland)) based on Malassezia furfur (DSM 6170)
Growth medium M472 Pityrosporum medium according to DSMZ:
40 g of malt extract (Becton, Dickinson and Company, Sparks, USA) 20 g of ox bile (Merck, Darmstadt, Germany)
A shake culture containing M472 Pityrosporum medium was inoculated with M. furfur and incubated with shaking at 30° C. and 200 rpm overnight.
The suspension was adjusted to an optical density measured at 600 nm of 0.1. A 96-well microtiter plate was filled with 95 μl per well of the M. furfur suspension. Then a dilution series of the peptide with a final concentration in the wells between 0 and 1000 ppm was added. To this end, 5 μl per well of peptide solution with a concentration in the range from 0 ppm to 20 000 ppm were added to the M. furfur suspension, such that final concentrations of the peptide in the wells in the range between 0 ppm and 1000 ppm were obtained.
The microtiter plate was incubated at 30° C., 600 rpm. The fungal growth was assessed by measuring the optical density at 620 nm and observed over 72 hours. The experiments were conducted at least in double determination and independently repeated at least once.

[4] = test system: C. albicans (DSM 11948); test: P18 in pharmaceutical base formulation (CFU); type: cell-based, Candida albicans; settings: mixed 1:9 with suspension
Procedure: The aim of the experiment was to study the effect of a pharmaceutical base formulation with the P18 peptide ingredient (P18 sequence H-KWKLFKKIPKFLHLAKKF-NH2 (Bachem AG, Switzerland)). For this purpose, the following base formulation was used: […]
1% hydroxycellulose 10% propylene glycol made up with water.
Based on the base formulation, formulations with rising P18 concentrations (500 ppm to 10 000 ppm) were prepared from a 20% concentrate solution.
The effect of the formulations on C. albicans (DSM 11948) was studied.
YM growth medium (Becton, Dickinson and Company, Sparks, USA) 3 g of yeast extract 3 g of malt extract 5 g of peptone 10 g of dextrose make up to 1 liter, set pH 6.2
The growth test was effected as follows: 5 ml of YM medium were inoculated with C. albicans and incubated at 30° C. and 200 rpm overnight.
1.5 ml reaction vessels were each filled with 1 ml of YM medium and inoculated with the C. albicans suspension from the overnight culture such that an optical density—measured at 600 nm—of 0.1 was obtained at the start of the experiment. The resulting C. albicans suspension was mixed in a ratio of 1:9 (formulation: C. albicans suspension) with the formulations. 1 μl of the culture was diluted with 20 μl of YM medium after 5 minutes, 10 minutes, 20 minutes and 60 minutes, and then plated out. After incubation over 24 hours, the colonies on the plates were counted.

H-KWKLFKKIPKFLHLAKKF-NH2 [P18, H-KWKLFKKIPKFLHLAKKF-NH2]
Effect of storage on the activity of the solution ([1]; 1 mM P18 peptide solution, 37° C., 12 weeks): has not affected the activity
Colony forming units (CFU) ([1]; aqueous P18 solution (fresh), final conc. 25 μM, incubation 16-18 h): 5 ± 8 CFU
Colony forming units (CFU) ([1]; aqueous P18 solution (fresh), final conc. 25 μM, incubation 24 h): 1 ± 2 CFU
Colony forming units (CFU) ([1]; aqueous P18 solution (fresh), final conc. 50 μM, incubation 16-18 h): 0 ± 0 CFU
Colony forming units (CFU) ([1]; aqueous P18 solution (fresh), final conc. 50 μM, incubation 24 h): 1 ± 1 CFU
Colony forming units (CFU) ([1]; aqueous P18 solution stored at 37° C. for 12 weeks, final conc. 25 μM, incubation 16-18 h): 6 ± 7 CFU
Colony forming units (CFU) ([1]; aqueous P18 solution stored at 37° C. for 12 weeks, final conc. 25 μM, incubation 24 h): 5 ± 5 CFU
Colony forming units (CFU) ([1]; aqueous P18 solution stored at 37° C. for 12 weeks, final conc. 50 μM, incubation 16-18 h): 0 ± 0 CFU
Colony forming units (CFU) ([1]; aqueous P18 solution stored at 37° C. for 12 weeks, final conc. 50 μM, incubation 24 h): 1 ± 1 CFU
Averaged number of colony forming units (CFU) [2]: 0 CFU
Minimum inhibitory concentration [3]: 125 ppm
Colony forming units after the incubation time specified ([4]; 10 000 ppm in the formulation, 5 minutes): 0.5 ± 0 CFU
Colony forming units after the incubation time specified ([4]; 10 000 ppm in the formulation, 10 minutes): 0 ± 0 CFU
Colony forming units after the incubation time specified ([4]; 10 000 ppm in the formulation, 20 minutes): 0 ± 0 CFU
Colony forming units after the incubation time specified ([4]; 10 000 ppm in the formulation, 60 minutes): 0 ± 0 CFU
Colony forming units after the incubation time specified ([4]; 500 ppm in the formulation, 5 minutes): 1484 ± 28 CFU
Colony forming units after the incubation time specified ([4]; 500 ppm in the formulation, 10 minutes): 1445 ± 38 CFU
Colony forming units after the incubation time specified ([4]; 500 ppm in the formulation, 20 minutes): 1262 ± 354 CFU
Colony forming units after the incubation time specified ([4]; 500 ppm in the formulation, 60 minutes): 962 ± 738 CFU
Colony forming units after the incubation time specified ([4]; 1000 ppm in the formulation, 5 minutes): 863 ± 553 CFU
Colony forming units after the incubation time specified ([4]; 1000 ppm in the formulation, 10 minutes): 616 ± 76 CFU
Colony forming units after the incubation time specified ([4]; 1000 ppm in the formulation, 20 minutes): 251 ± 109 CFU
Colony forming units after the incubation time specified ([4]; 1000 ppm in the formulation, 60 minutes): 3.25 ± 1.8 CFU
Colony forming units after the incubation time specified ([4]; 2000 ppm in the formulation, 5 minutes): 29 ± 23 CFU
Colony forming units after the incubation time specified ([4]; 2000 ppm in the formulation, 10 minutes): 3.5 ± 3.5 CFU
Colony forming units after the incubation time specified ([4]; 2000 ppm in the formulation, 20 minutes): 0.25 ± 0.4 CFU
Colony forming units after the incubation time specified ([4]; 2000 ppm in the formulation, 60 minutes): 0 ± 0 CFU
Colony forming units after the incubation time specified ([4]; 5000 ppm in the formulation, 5 minutes): 1 ± 0.7 CFU
Colony forming units after the incubation time specified ([4]; 5000 ppm in the formulation, 10 minutes): 0 ± 0 CFU
Colony forming units after the incubation time specified ([4]; 5000 ppm in the formulation, 20 minutes): 0 ± 0 CFU
Colony forming units after the incubation time specified ([4]; 5000 ppm in the formulation, 60 minutes): 0 ± 0 CFU
